Results taken from PubChem BioAssay AID1963832 (Molecular Pharmacology Branch, DTP, NCI, 2024).

System: 885724-159-R-J1-PDC complex spheroid viability
Test: Anticancer human tumor 885724-159-R-J1-PDC patient-derived pancreatic adenocarcinoma cell line growth inhibition [POLQ]
Conditions: for IC50: curve of first compound; for viability, T/C: stronger effect = lower value
Method in brief: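 Patient-derived tumour cells were co-cultured with HUVEC and mesenchymal stem cells as multicellular spheroids at 37 °C. They were treated with POLQ inhibitors (novobiocin, ART-558, RP6685) alone or combined with other agents. Top concentrations were at or near clinical Cmax (otherwise 10 microM; SN-38 at 1 microM), decreasing in half-log steps.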

[1] = second compound 0.0316 µM, first compound 0.0316 µM
[2] = second compound 0.0316 µM, first compound 0.1 µM
[3] = second compound 0.0316 µM, first compound 0.316 µM
[4] = second compound 0.0316 µM, first compound 1 µM
[5] = second compound 0.0316 µM, first compound 3.16 µM
[6] = second compound 0.0316 µM, first compound 10 µM
[7] = second compound 0.1 µM, first compound 0.0316 µM
[8] = second compound 0.1 µM, first compound 0.1 µM
[9] = second compound 0.1 µM, first compound 0.316 µM
[10] = second compound 0.1 µM, first compound 1 µM
[11] = second compound 0.1 µM, first compound 3.16 µM
[12] = second compound 0.1 µM, first compound 10 µM
[13] = second compound 0.316 µM, first compound 0.0316 µM
[14] = second compound 0.316 µM, first compound 0.1 µM
[15] = second compound 0.316 µM, first compound 0.316 µM
[16] = second compound 0.316 µM, first compound 1 µM
[17] = second compound 0.316 µM, first compound 3.16 µM
[18] = second compound 0.316 µM, first compound 10 µM
[19] = second compound 1 µM, first compound 0.0316 µM
[20] = second compound 1 µM, first compound 0.1 µM
[21] = second compound 1 µM, first compound 0.316 µM
[22] = second compound 1 µM, first compound 1 µM
[23] = second compound 1 µM, first compound 3.16 µM
[24] = second compound 1 µM, first compound 10 µM
[25] = second compound 3.16 µM, first compound 0.0316 µM
[26] = second compound 3.16 µM, first compound 0.1 µM
[27] = second compound 3.16 µM, first compound 0.316 µM
[28] = second compound 3.16 µM, first compound 1 µM
[29] = second compound 3.16 µM, first compound 3.16 µM
[30] = second compound 3.16 µM, first compound 10 µM
[31] = second compound 10 µM, first compound 0.0316 µM
[32] = second compound 10 µM, first compound 0.1 µM
[33] = second compound 10 µM, first compound 0.316 µM
[34] = second compound 10 µM, first compound 1 µM
[35] = second compound 10 µM, first compound 3.16 µM
[36] = second compound 10 µM, first compound 10 µM
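Further: spheroids exposed to compounds for 7 days.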

## O=C(Nc1ccc(O)c(NS(=O)(=O)c2ccc(F)cc2)c1)c1ccc(-c2ccccc2)cc1 + Cc1cccc(N(C)C(=O)C2C(O)CCN2c2nc(C)cc(C(F)(F)F)c2C#N)c1
Second compound 0.0316 µM
  IC50: > 10000 nM
Second compound 0.1 µM
  IC50: > 10000 nM
Second compound 0.316 µM
  IC50: > 10000 nM
Second compound 1 µM
  IC50: > 10000 nM
Second compound 3.16 µM
  IC50: > 10000 nM
Second compound 10 µM
  IC50: > 10000 nM
[1]
  viability, T/C: 110%
[2]
  viability, T/C: 92.4%
[3]
  viability, T/C: 101%
[4]
  viability, T/C: 102%
[5]
  viability, T/C: 106%
[6]
  viability, T/C: 102%
[7]
  viability, T/C: 96.6%
[8]
  viability, T/C: 103%
[9]
  viability, T/C: 94.2%
[10]
  viability, T/C: 107%
[11]
  viability, T/C: 111%
[12]
  viability, T/C: 117%
[13]
  viability, T/C: 102%
[14]
  viability, T/C: 92.3%
[15]
  viability, T/C: 98.3%
[16]
  viability, T/C: 101%
[17]
  viability, T/C: 118%
[18]
  viability, T/C: 108%
[19]
  viability, T/C: 110%
[20]
  viability, T/C: 91.2%
[21]
  viability, T/C: 107%
[22]
  viability, T/C: 106%
[23]
  viability, T/C: 112%
[24]
  viability, T/C: 111%
[25]
  viability, T/C: 107%
[26]
  viability, T/C: 90.1%
[27]
  viability, T/C: 105%
[28]
  viability, T/C: 104%
[29]
  viability, T/C: 115%
[30]
  viability, T/C: 107%
[31]
  viability, T/C: 105%
[32]
  viability, T/C: 102%
[33]
  viability, T/C: 104%
[34]
  viability, T/C: 108%
[35]
  viability, T/C: 123%
[36]
  viability, T/C: 101%

## CC(=O)O[C@H]1C(=O)[C@@]2(C)[C@H]([C@H](OC(=O)c3ccccc3)[C@]3(O)C[C@H](OC(=O)[C@H](O)[C@@H](NC(=O)c4ccccc4)c4ccccc4)C(C)=C1C3(C)C)[C@]1(OC(C)=O)CO[C@@H]1C[C@@H]2O + Nc1ccc(C#CCN(C(=O)Cc2ncc(C(F)(F)F)cc2C(F)(F)F)c2ccc(F)cc2)nn1
Second compound 0.0316 µM
  IC50: > 3000 nM
Second compound 0.1 µM
  IC50: > 3000 nM
Second compound 0.316 µM
  IC50: > 3000 nM
Second compound 1 µM
  IC50: > 3000 nM
Second compound 3.16 µM
  IC50: > 3000 nM
Second compound 10 µM
  IC50: > 3000 nM
Second compound 0.0316 µM, first compound 0.00949 µM
  viability, T/C: 65.9%
Second compound 0.0316 µM, first compound 0.03 µM
  viability, T/C: 59.9%
Second compound 0.0316 µM, first compound 0.0949 µM
  viability, T/C: 56.6%
Second compound 0.0316 µM, first compound 0.3 µM
  viability, T/C: 64.7%
Second compound 0.0316 µM, first compound 0.949 µM
  viability, T/C: 62.5%
Second compound 0.0316 µM, first compound 3 µM
  viability, T/C: 70.3%
Second compound 0.1 µM, first compound 0.00949 µM
  viability, T/C: 69.9%
Second compound 0.1 µM, first compound 0.03 µM
  viability, T/C: 61.7%
Second compound 0.1 µM, first compound 0.0949 µM
  viability, T/C: 62.5%
Second compound 0.1 µM, first compound 0.3 µM
  viability, T/C: 69.1%
Second compound 0.1 µM, first compound 0.949 µM
  viability, T/C: 70%
Second compound 0.1 µM, first compound 3 µM
  viability, T/C: 68.9%
Second compound 0.316 µM, first compound 0.00949 µM
  viability, T/C: 71.8%
Second compound 0.316 µM, first compound 0.03 µM
  viability, T/C: 60.4%
Second compound 0.316 µM, first compound 0.0949 µM
  viability, T/C: 68%
Second compound 0.316 µM, first compound 0.3 µM
  viability, T/C: 58.1%
Second compound 0.316 µM, first compound 0.949 µM
  viability, T/C: 71.2%
Second compound 0.316 µM, first compound 3 µM
  viability, T/C: 74%
Second compound 1 µM, first compound 0.00949 µM
  viability, T/C: 63.4%
Second compound 1 µM, first compound 0.03 µM
  viability, T/C: 61.5%
Second compound 1 µM, first compound 0.0949 µM
  viability, T/C: 58.6%
Second compound 1 µM, first compound 0.3 µM
  viability, T/C: 63%
Second compound 1 µM, first compound 0.949 µM
  viability, T/C: 70.2%
Second compound 1 µM, first compound 3 µM
  viability, T/C: 69.5%
Second compound 3.16 µM, first compound 0.00949 µM
  viability, T/C: 64.8%
Second compound 3.16 µM, first compound 0.03 µM
  viability, T/C: 66.5%
Second compound 3.16 µM, first compound 0.0949 µM
  viability, T/C: 61.9%
Second compound 3.16 µM, first compound 0.3 µM
  viability, T/C: 60%
Second compound 3.16 µM, first compound 0.949 µM
  viability, T/C: 68.3%
Second compound 3.16 µM, first compound 3 µM
  viability, T/C: 75%
Second compound 10 µM, first compound 0.00949 µM
  viability, T/C: 67.4%
Second compound 10 µM, first compound 0.03 µM
  viability, T/C: 59.2%
Second compound 10 µM, first compound 0.0949 µM
  viability, T/C: 66.2%
Second compound 10 µM, first compound 0.3 µM
  viability, T/C: 70%
Second compound 10 µM, first compound 0.949 µM
  viability, T/C: 75.3%
Second compound 10 µM, first compound 3 µM
  viability, T/C: 71.8%

## COc1cccc2c1C(=O)c1c(O)c3c(c(O)c1C2=O)CC(O)(C(=O)CO)CC3OC1CC(N)C(O)C(C)O1 (stereo unspecified) + Nc1ccc(C#CCN(C(=O)Cc2ncc(C(F)(F)F)cc2C(F)(F)F)c2ccc(F)cc2)nn1
Second compound 0.0316 µM
  IC50: 158 nM
Second compound 0.1 µM
  IC50: 198 nM
Second compound 0.316 µM
  IC50: 150 nM
Second compound 1 µM
  IC50: 173 nM
Second compound 3.16 µM
  IC50: 163 nM
Second compound 10 µM
  IC50: 168 nM
[1]
  viability, T/C: 66.2%
[2]
  viability, T/C: 61%
[3]
  viability, T/C: 34%
[4]
  viability, T/C: 13.8%
[5]
  viability, T/C: 5.73%
[6]
  viability, T/C: 6.16%
[7]
  viability, T/C: 75.9%
[8]
  viability, T/C: 64.5%
[9]
  viability, T/C: 40.4%
[10]
  viability, T/C: 12.2%
[11]
  viability, T/C: 6.2%
[12]
  viability, T/C: 6.34%
[13]
  viability, T/C: 72.5%
[14]
  viability, T/C: 55.7%
[15]
  viability, T/C: 37.7%
[16]
  viability, T/C: 14.6%
[17]
  viability, T/C: 5.39%
[18]
  viability, T/C: 7.18%
[19]
  viability, T/C: 76.7%
[20]
  viability, T/C: 60.8%
[21]
  viability, T/C: 38.1%
[22]
  viability, T/C: 10.1%
[23]
  viability, T/C: 6.54%
[24]
  viability, T/C: 7.34%
[25]
  viability, T/C: 74.9%
[26]
  viability, T/C: 60.6%
[27]
  viability, T/C: 35.2%
[28]
  viability, T/C: 12.9%
[29]
  viability, T/C: 5.75%
[30]
  viability, T/C: 7.58%
[31]
  viability, T/C: 70.8%
[32]
  viability, T/C: 61.1%
[33]
  viability, T/C: 36.1%
[34]
  viability, T/C: 11.3%
[35]
  viability, T/C: 5.42%
[36]
  viability, T/C: 5.67%
